Source: publication PMC8617031, “Development of a BCL-xL and BCL-2 dual degrader with improved anti-leukemic activity,” (Nature Communications, 2021)
Where “and” joins values, the source holds several entries; their conditions need not be identical. Equal entries are not always repeated.

Experiments:
[1] = target: T1, BCL-2 (Homo sapiens, UniProt P10415); experiment: BCL-2 degradation by immunoblot in 293T cells; format: cell-based; conditions: for Dmax: HEK-293T
T1 construct: endogenous in cells
Method in brief: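 Immunoblot of 293T cell lysates (RIPA, 20–40 μg protein per lane) with β-actin as loading control and chemiluminescent detection. Bands quantified by densitometry and normalized; DC50 and Dmax derived from the quantified blots, n = 3 biologically independent experiments.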

[2] = target: T2, BCL-xL/PROTAC/VHL-ELOC-ELOB (VCB) ternary complex (Homo sapiens, UniProt P40337+Q07817); experiment: AlphaLISA ternary complex formation, cell-free, BCL-xL; format: binding
T2 construct: pGEX-6P-1-VHL(54-213) (pDL2200) was constructed through Gibson assembly method; made in house; host or cells: bacterial culture (LB broth, IPTG induction)
Method in brief: (§1)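 Cell-free AlphaLISA: 5 nM His-tagged BCL-xL or BCL-2 plus 5 nM GST-VCB incubated with fourfold serially diluted compound 30 min at room temperature. Glutathione donor and His acceptor beads (20 µg/ml each) then added for 15 and 45 min; AlphaLISA signal plotted against compound concentration.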

[3] = target: T3, BCL-2/PROTAC/VCB ternary complex (Homo sapiens, UniProt P10415+P40337); experiment: AlphaLISA ternary complex formation, cell-free, BCL-2; format: binding; conditions: for Alpha (Alpha Endpoint read, Bcl-2 ternary complex formation): raw plate signal, duplicate wells; for AlphaLISA signal, BCL-2/PROTAC/VCB: Fig. 2d raw Alpha reads
T3 construct: pGEX-6P-1-VHL(54-213) (pDL2200) was constructed through Gibson assembly method; made in house; host or cells: bacterial culture (LB broth, IPTG induction)
Method in brief: as §1

[4] = compound 0.191 nM, Fig. 2c raw Alpha reads
[5] = compound 0.763 nM, Fig. 2c raw Alpha reads
[6] = compound 3.052 nM, Fig. 2c raw Alpha reads
[7] = compound 12.207 nM, Fig. 2c raw Alpha reads
[8] = compound 48.828 nM, Fig. 2c raw Alpha reads
[9] = compound 195.31 nM, Fig. 2c raw Alpha reads
[10] = compound 781.25 nM, Fig. 2c raw Alpha reads
[11] = compound 3125 nM, Fig. 2c raw Alpha reads
[12] = compound 12500 nM, Fig. 2c raw Alpha reads
[13] = compound 50000 nM, Fig. 2c raw Alpha reads
[14] = compound 200000 nM, Fig. 2c raw Alpha reads, 2 technical replicates
[15] = compound 200000 nM, 2 technical replicates

T1 sequence (P10415 whole entry): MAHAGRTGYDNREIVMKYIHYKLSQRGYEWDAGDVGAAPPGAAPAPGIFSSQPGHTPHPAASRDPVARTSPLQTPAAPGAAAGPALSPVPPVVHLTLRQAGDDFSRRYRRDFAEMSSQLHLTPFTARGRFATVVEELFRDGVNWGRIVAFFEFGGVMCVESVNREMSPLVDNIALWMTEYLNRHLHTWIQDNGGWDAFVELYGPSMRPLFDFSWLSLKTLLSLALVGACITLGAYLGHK
T2 sequence (Q07817 1-212 limits assumed): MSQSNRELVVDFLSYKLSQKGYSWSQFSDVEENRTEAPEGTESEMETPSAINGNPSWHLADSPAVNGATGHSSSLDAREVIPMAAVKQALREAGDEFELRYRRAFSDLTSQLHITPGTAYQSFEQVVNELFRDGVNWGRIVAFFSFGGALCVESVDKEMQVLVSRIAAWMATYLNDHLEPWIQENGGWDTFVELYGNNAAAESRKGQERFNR
T2 sequence (P40337 54-213 limits assumed): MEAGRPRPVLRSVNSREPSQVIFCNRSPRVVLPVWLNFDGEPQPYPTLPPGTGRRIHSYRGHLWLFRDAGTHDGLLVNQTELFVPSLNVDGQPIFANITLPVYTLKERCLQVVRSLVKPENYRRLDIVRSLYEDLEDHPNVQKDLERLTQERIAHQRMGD
T2 sequence (Q15369 17-112 partner limits assumed): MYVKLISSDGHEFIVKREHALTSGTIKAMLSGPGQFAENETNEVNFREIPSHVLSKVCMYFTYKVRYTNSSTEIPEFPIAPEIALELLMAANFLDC
T2 sequence (Q15370 whole entry partner): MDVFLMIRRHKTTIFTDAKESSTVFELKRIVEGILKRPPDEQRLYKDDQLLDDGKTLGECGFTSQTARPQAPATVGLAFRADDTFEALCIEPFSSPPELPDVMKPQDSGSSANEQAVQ
T3 sequence (P10415 1-211 limits assumed): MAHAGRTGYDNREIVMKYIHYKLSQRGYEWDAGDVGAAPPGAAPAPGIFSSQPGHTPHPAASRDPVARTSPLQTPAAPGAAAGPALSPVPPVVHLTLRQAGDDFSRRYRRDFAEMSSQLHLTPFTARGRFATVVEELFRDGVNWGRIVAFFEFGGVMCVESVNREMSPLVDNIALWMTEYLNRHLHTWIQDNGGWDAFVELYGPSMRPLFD
T3 sequence (P40337 54-213 limits assumed): as the sequence (P40337 54-213 limits assumed) above
T3 sequence (Q15369 17-112 partner limits assumed): as the sequence (Q15369 17-112 partner limits assumed) above
T3 sequence (Q15370 whole entry partner): as the sequence (Q15370 whole entry partner) above

Cc1ncsc1-c1ccc([C@H](C)NC(=O)[C@@H]2C[C@@H](O)CN2C(=O)[C@@H](NC(=O)CCCCCC(=O)N2CCN(CC[C@H](CSc3ccccc3)Nc3ccc(S(=O)(=O)NC(=O)c4ccc(N5CCN(CC6=C(c7ccc(Cl)cc7)CCC(C)(C)C6)CC5)cc4)cc3S(=O)(=O)C(F)(F)F)CC2)C(C)(C)C)cc1 [DT2216]
BCL-2 degradation (in words) ([1]; 293T cells, 16 h): did not induce BCL-2 degradation
Dmax [1]: 0%
AlphaLISA signal, BCL-xL/PROTAC/VCB ([2]; compound 0.19 nM, Fig. 3e raw Alpha reads): 24660 and 20115
AlphaLISA signal, BCL-xL/PROTAC/VCB [2, 4]: 16719 and 10405
AlphaLISA signal, BCL-xL/PROTAC/VCB ([2]; compound 0.76 nM, Fig. 3e raw Alpha reads): 36507 and 38317
AlphaLISA signal, BCL-xL/PROTAC/VCB [2, 5]: 18311 and 16968
AlphaLISA signal, BCL-xL/PROTAC/VCB ([2]; compound 3.05 nM, Fig. 3e raw Alpha reads): 66449 and 60221
AlphaLISA signal, BCL-xL/PROTAC/VCB [2, 6]: 25910 and 22328
AlphaLISA signal, BCL-xL/PROTAC/VCB [2, 7]: 86818 and 83277
AlphaLISA signal, BCL-xL/PROTAC/VCB ([2]; compound 12.21 nM, Fig. 3e raw Alpha reads): 409606 and 406374
AlphaLISA signal, BCL-xL/PROTAC/VCB [2, 8]: 487236 and 509576
AlphaLISA signal, BCL-xL/PROTAC/VCB ([2]; compound 48.83 nM, Fig. 3e raw Alpha reads): 1004765 and 1011127
AlphaLISA signal, BCL-xL/PROTAC/VCB [2, 9]: 1016591 and 916263
AlphaLISA signal, BCL-xL/PROTAC/VCB ([2]; compound 195.31 nM, Fig. 3e raw Alpha reads): 1443448 and 1418663
AlphaLISA signal, BCL-xL/PROTAC/VCB [2, 10]: 880317 and 910855
AlphaLISA signal, BCL-xL/PROTAC/VCB ([2]; compound 781.25 nM, Fig. 3e raw Alpha reads): 1065855 and 975587
AlphaLISA signal, BCL-xL/PROTAC/VCB [2, 11]: 660864 and 590073
AlphaLISA signal, BCL-xL/PROTAC/VCB ([2]; compound 3125 nM, Fig. 3e raw Alpha reads): 557160 and 572089
AlphaLISA signal, BCL-xL/PROTAC/VCB [2, 12]: 241490 and 226854
AlphaLISA signal, BCL-xL/PROTAC/VCB ([2]; compound 12500 nM, Fig. 3e raw Alpha reads): 200468 and 154034
AlphaLISA signal, BCL-xL/PROTAC/VCB [2, 13]: 34465 and 29535
AlphaLISA signal, BCL-xL/PROTAC/VCB ([2]; compound 50000 nM, Fig. 3e raw Alpha reads, 2 technical replicates): 37331 and 41699
AlphaLISA signal, BCL-xL/PROTAC/VCB [2, 14]: 19406 and 20996
Alpha (Alpha Endpoint read, Bcl-2 ternary complex formation) ([3]; Conc. 0.0762939 nM): 20813 and 18426
Alpha (Alpha Endpoint read, Bcl-2 ternary complex formation) ([3]; Conc. 0.305176 nM): 25167 and 44180
Alpha (Alpha Endpoint read, Bcl-2 ternary complex formation) ([3]; Conc. 1.2207 nM): 134706 and 124477
Alpha (Alpha Endpoint read, Bcl-2 ternary complex formation) ([3]; Conc. 4.88281 nM): 167974 and 147424
Alpha (Alpha Endpoint read, Bcl-2 ternary complex formation) ([3]; Conc. 19.5312 nM): 637139 and 671757
Alpha (Alpha Endpoint read, Bcl-2 ternary complex formation) ([3]; Conc. 78.125 nM): 1569627 and 1815622
Alpha (Alpha Endpoint read, Bcl-2 ternary complex formation) ([3]; Conc. 312.5 nM): 1851330 and 1734079
Alpha (Alpha Endpoint read, Bcl-2 ternary complex formation) ([3]; Conc. 1250 nM): 970107 and 1023464
Alpha (Alpha Endpoint read, Bcl-2 ternary complex formation) ([3]; Conc. 5000 nM): 185911 and 171854
Alpha (Alpha Endpoint read, Bcl-2 ternary complex formation) ([3]; Conc. 20000 nM): 15128 and 13041
AlphaLISA signal, BCL-2/PROTAC/VCB ([3]; compound 0.191 nM): 15777 and 15419
AlphaLISA signal, BCL-2/PROTAC/VCB ([3]; compound 0.763 nM): 15170 and 18328
AlphaLISA signal, BCL-2/PROTAC/VCB ([3]; compound 3.052 nM): 22062 and 18311
AlphaLISA signal, BCL-2/PROTAC/VCB ([3]; compound 12.207 nM): 69812 and 70261
AlphaLISA signal, BCL-2/PROTAC/VCB ([3]; compound 48.828 nM): 478226 and 503248
AlphaLISA signal, BCL-2/PROTAC/VCB ([3]; compound 195.31 nM): 862665 and 765838
AlphaLISA signal, BCL-2/PROTAC/VCB ([3]; compound 781.25 nM): 770133 and 699715
AlphaLISA signal, BCL-2/PROTAC/VCB ([3]; compound 3125 nM): 392514 and 467832
AlphaLISA signal, BCL-2/PROTAC/VCB ([3]; compound 12500 nM): 47038 and 50161
AlphaLISA signal, BCL-2/PROTAC/VCB ([3]; compound 50000 nM): 7988 and 8322
AlphaLISA signal, BCL-2/PROTAC/VCB [3, 15]: 7003 and 7472

Cc1ncsc1-c1ccc([C@H](C)NC(=O)[C@@H]2C[C@@H](O)CN2C(=O)[C@@H](NC(=O)CCCCC(=O)N2CCN(CC3(C)CCC(c4ccc(Cl)cc4)=C(CN4CCN(c5ccc(C(=O)NS(=O)(=O)c6ccc(N[C@H](CCN7CCOCC7)CSc7ccccc7)c(S(=O)(=O)C(F)(F)F)c6)cc5)CC4)C3)CC2)C(C)(C)C)cc1 (stereo partly drawn) [PPC6]
Dmax [1]: 47%
in vitro ternary complex formation with BCL-xL (in words) ([2]; AlphaLISA, cell-free, Fig. 2c, 3e): stronger ternary complexes
AlphaLISA signal, BCL-xL/PROTAC/VCB [2, 4]: 15802 and 16724
AlphaLISA signal, BCL-xL/PROTAC/VCB [2, 5]: 18968 and 16877
AlphaLISA signal, BCL-xL/PROTAC/VCB [2, 6]: 31177 and 28685
AlphaLISA signal, BCL-xL/PROTAC/VCB [2, 7]: 217997 and 245739
AlphaLISA signal, BCL-xL/PROTAC/VCB [2, 8]: 796343 and 866530
AlphaLISA signal, BCL-xL/PROTAC/VCB [2, 9]: 952961 and 938632
AlphaLISA signal, BCL-xL/PROTAC/VCB [2, 10]: 936762 and 1084189
AlphaLISA signal, BCL-xL/PROTAC/VCB [2, 11]: 603765 and 595968
AlphaLISA signal, BCL-xL/PROTAC/VCB [2, 12]: 155340 and 139952
AlphaLISA signal, BCL-xL/PROTAC/VCB [2, 13]: 73929 and 84434
AlphaLISA signal, BCL-xL/PROTAC/VCB [2, 14]: 25477 and 29119
in vitro ternary complex formation with BCL-2 (in words) ([3]; AlphaLISA, cell-free, Fig. 2d, 3f): stronger ternary complexes
AlphaLISA signal, BCL-2/PROTAC/VCB ([3]; compound 0.191 nM): 16425 and 15906
AlphaLISA signal, BCL-2/PROTAC/VCB ([3]; compound 0.763 nM): 18031 and 17435
AlphaLISA signal, BCL-2/PROTAC/VCB ([3]; compound 3.052 nM): 30431 and 31755
AlphaLISA signal, BCL-2/PROTAC/VCB ([3]; compound 12.207 nM): 272991 and 264284
AlphaLISA signal, BCL-2/PROTAC/VCB ([3]; compound 48.828 nM): 1222232 and 1254048
AlphaLISA signal, BCL-2/PROTAC/VCB ([3]; compound 195.31 nM): 1139558 and 1151559
AlphaLISA signal, BCL-2/PROTAC/VCB ([3]; compound 781.25 nM): 1076543 and 1153682
AlphaLISA signal, BCL-2/PROTAC/VCB ([3]; compound 3125 nM): 286448 and 313784
AlphaLISA signal, BCL-2/PROTAC/VCB ([3]; compound 12500 nM): 33420 and 31990
AlphaLISA signal, BCL-2/PROTAC/VCB ([3]; compound 50000 nM): 13658 and 13269
AlphaLISA signal, BCL-2/PROTAC/VCB [3, 15]: 8289 and 7903
